Experimental data reported in ChEMBL document CHEMBL1201862, “PubChem BioAssay data set” (2004).
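Tested at 5 concentrations; 48 h exposure; 96-well plates; endpoints linearly interpolated, else capped at highest concentration. GI50 = concentration required for 50% inhibition of growth.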 Calls of active or inactive are those of the source. Cut-off read from the data, not from the text of the source: active = GI50 up to about 1.1 µM and inactive = higher.

How the values were obtained:
Test in all cases: NCI tumour cell line growth inhibition, 48 h
786-0 = test system: 786-0
A549 = test system: A549
ACHN = test system: ACHN
CAKI-1 = test system: CAKI-1
CCRF-CEM = test system: CCRF-CEM
COLO 205 = test system: COLO 205
DLD-1 = test system: DLD-1
DMS-273 = test system: DMS-273
EKVX = test system: EKVX
HCC 2998 = test system: HCC 2998
HCT-116 = test system: HCT-116
HCT-15 = test system: HCT-15
HL-60 = test system: HL-60
HOP-18 = test system: HOP-18
HOP-62 = test system: HOP-62
HOP-92 = test system: HOP-92
HT-29 = test system: HT-29
IGROV-1 = test system: IGROV-1
K562 = test system: K562
KM-20L2 = test system: KM-20L2
KM12 = test system: KM12
LOX IMVI = test system: LOX IMVI
LXFL 529 = test system: LXFL 529
M14 = test system: M14
MOLT-4 = test system: MOLT-4
Malme-3M = test system: Malme-3M
NCI-H226 = test system: NCI-H226
NCI-H23 = test system: NCI-H23
NCI-H460 = test system: NCI-H460
NCI-H522 = test system: NCI-H522
OVCAR-3 = test system: OVCAR-3
OVCAR-4 = test system: OVCAR-4
OVCAR-8 = test system: OVCAR-8
RPMI-8226 = test system: RPMI-8226
RXF 393 = test system: RXF 393
SF-268 = test system: SF-268
SF-295 = test system: SF-295
SF-539 = test system: SF-539
SK-MEL-28 = test system: SK-MEL-28
SK-MEL-2 = test system: SK-MEL-2
SK-MEL-5 = test system: SK-MEL-5
SK-OV-3 = test system: SK-OV-3
SN12C = test system: SN12C
SNB-19 = test system: SNB-19
SNB-78 = test system: SNB-78
SR = test system: SR
SW-620 = test system: SW-620
TK-10 = test system: TK-10
U-251 = test system: U-251
UACC-62 = test system: UACC-62
UO-31 = test system: UO-31
XF498 = test system: XF498
A498 = test system: A498
DMS-114 = test system: DMS-114
M19-MEL = test system: M19-MEL
OVCAR-5 = test system: OVCAR-5
SNB-75 = test system: SNB-75
UACC-257 = test system: UACC-257
MCF7 = test system: MCF7
NCI/ADR-RES = test system: NCI/ADR-RES

SMILES: O=c1c2c([nH]c3cc4c(cc13)OCO4)-c1ccccc1C2
- GI50 (786-0): 28.1 µM (inactive)
- GI50 (A549): 27.1 µM (inactive)
- GI50 (ACHN): 19.4 µM (inactive)
- GI50 (CAKI-1): 39 µM (inactive)
- GI50 (CCRF-CEM): 17.7 µM (inactive)
- GI50 (COLO 205): 17 µM (inactive)
- GI50 (DLD-1): 23.5 µM (inactive)
- GI50 (DMS-273): 19.2 µM (inactive)
- GI50 (EKVX): 29.6 µM (inactive)
- GI50 (HCC 2998): 24.4 µM (inactive)
- GI50 (HCT-116): 15.6 µM (inactive)
- GI50 (HCT-15): 19.3 µM
- GI50 (HL-60): 27.7 µM (inactive)
- GI50 (HOP-18): 24.2 µM (inactive)
- GI50 (HOP-62): 23.4 µM (inactive)
- GI50 (HOP-92): 18.3 µM (inactive)
- GI50 (HT-29): 17.7 µM (inactive)
- GI50 (IGROV-1): 17.7 µM (inactive)
- GI50 (K562): 27.2 µM (inactive)
- GI50 (KM-20L2): 19 µM (inactive)
- GI50 (KM12): 18.6 µM (inactive)
- GI50 (LOX IMVI): 15.6 µM (inactive)
- GI50 (LXFL 529): 22.7 µM (inactive)
- GI50 (M14): 20.6 µM (inactive)
- GI50 (MOLT-4): 24.7 µM (inactive)
- GI50 (Malme-3M): 23.2 µM (inactive)
- GI50 (NCI-H226): 27.2 µM (inactive)
- GI50 (NCI-H23): 26.1 µM (inactive)
- GI50 (NCI-H460): 22.3 µM (inactive)
- GI50 (NCI-H522): 22.4 µM (inactive)
- GI50 (OVCAR-3): 22.5 µM (inactive)
- GI50 (OVCAR-4): 33.3 µM (inactive)
- GI50 (OVCAR-8): 29.8 µM (inactive)
- GI50 (RPMI-8226): 15 µM (inactive)
- GI50 (RXF 393): 16.4 µM (inactive)
- GI50 (SF-268): 36.2 µM (inactive)
- GI50 (SF-295): 26.9 µM (inactive)
- GI50 (SF-539): 18.1 µM (inactive)
- GI50 (SK-MEL-28): 22.6 µM (inactive)
- GI50 (SK-MEL-2): 13.5 µM (inactive)
- GI50 (SK-MEL-5): 16 µM (inactive)
- GI50 (SK-OV-3): 31.3 µM (inactive)
- GI50 (SN12C): 30.3 µM (inactive)
- GI50 (SNB-19): 37.1 µM (inactive)
- GI50 (SNB-78): 30.5 µM (inactive)
- GI50 (SR): 18.1 µM (inactive)
- GI50 (SW-620): 35.2 µM (inactive)
- GI50 (TK-10): 10.7 µM (inactive)
- GI50 (U-251): 17.2 µM (inactive)
- GI50 (UACC-62): 17.1 µM (inactive)
- GI50 (UO-31): 24.8 µM (inactive)
- GI50 (XF498): 24.2 µM (inactive)

SMILES: COc1ccc(NC(=O)CSc2nnc(Cc3ccccc3)o2)cc1
- GI50 (786-0): > 100 µM (inactive)
- GI50 (A498): > 100 µM (inactive)
- GI50 (A549): > 100 µM (inactive)
- GI50 (ACHN): > 100 µM (inactive)
- GI50 (CAKI-1): > 100 µM (inactive)
- GI50 (CCRF-CEM): 82.2 µM (inactive)
- GI50 (COLO 205): 94.8 µM (inactive)
- GI50 (DLD-1): > 100 µM (inactive)
- GI50 (DMS-114): 17.9 µM (inactive)
- GI50 (DMS-273): > 100 µM (inactive)
- GI50 (HCC 2998): > 100 µM (inactive)
- GI50 (HCT-116): > 100 µM (inactive)
- GI50 (HCT-15): > 100 µM
- GI50 (HOP-18): > 100 µM (inactive)
- GI50 (HOP-62): > 100 µM (inactive)
- GI50 (HT-29): 74.1 µM (inactive)
- GI50 (IGROV-1): > 100 µM (inactive)
- GI50 (K562): > 100 µM (inactive)
- GI50 (KM-20L2): > 100 µM (inactive)
- GI50 (KM12): > 100 µM (inactive)
- GI50 (LOX IMVI): 53.5 µM (inactive)
- GI50 (LXFL 529): > 100 µM (inactive)
- GI50 (M14): > 100 µM (inactive)
- GI50 (M19-MEL): 82.6 µM (inactive)
- GI50 (MOLT-4): > 100 µM (inactive)
- GI50 (Malme-3M): > 100 µM (inactive)
- GI50 (NCI-H226): > 100 µM (inactive)
- GI50 (NCI-H23): 61.5 µM (inactive)
- GI50 (NCI-H460): > 100 µM (inactive)
- GI50 (NCI-H522): 53.7 µM (inactive)
- GI50 (OVCAR-3): 78.3 µM (inactive)
- GI50 (OVCAR-4): > 100 µM (inactive)
- GI50 (OVCAR-5): > 100 µM (inactive)
- GI50 (OVCAR-8): > 100 µM (inactive)
- GI50 (RPMI-8226): 41.4 µM (inactive)
- GI50 (RXF 393): > 100 µM (inactive)
- GI50 (SF-268): 88.1 µM (inactive)
- GI50 (SF-295): 55.6 µM (inactive)
- GI50 (SF-539): > 100 µM (inactive)
- GI50 (SK-MEL-28): > 100 µM (inactive)
- GI50 (SK-MEL-2): > 100 µM (inactive)
- GI50 (SK-MEL-5): 85.1 µM (inactive)
- GI50 (SK-OV-3): > 100 µM (inactive)
- GI50 (SN12C): > 100 µM (inactive)
- GI50 (SNB-19): 97.7 µM (inactive)
- GI50 (SNB-75): > 100 µM (inactive)
- GI50 (SNB-78): > 100 µM (inactive)
- GI50 (SW-620): > 100 µM (inactive)
- GI50 (TK-10): > 100 µM (inactive)
- GI50 (U-251): 34.5 µM (inactive)
- GI50 (UACC-257): > 100 µM (inactive)
- GI50 (UACC-62): > 100 µM (inactive)
- GI50 (UO-31): > 100 µM (inactive)

SMILES: C=CCNC(=O)C(C)C1CCC2(C)C=CC(=O)C(C)=C2C1O (stereo not drawn)
- GI50 (A498): > 100 µM (inactive)
- GI50 (A549): > 100 µM (inactive)
- GI50 (CAKI-1): > 100 µM (inactive)
- GI50 (CCRF-CEM): > 100 µM (inactive)
- GI50 (COLO 205): > 100 µM (inactive)
- GI50 (DLD-1): > 100 µM (inactive)
- GI50 (DMS-114): > 100 µM (inactive)
- GI50 (DMS-273): > 100 µM (inactive)
- GI50 (EKVX): > 100 µM (inactive)
- GI50 (HCC 2998): > 100 µM (inactive)
- GI50 (HCT-116): > 100 µM (inactive)
- GI50 (HCT-15): > 100 µM
- GI50 (HL-60): > 100 µM (inactive)
- GI50 (HOP-18): > 100 µM (inactive)
- GI50 (HOP-62): > 100 µM (inactive)
- GI50 (HOP-92): > 100 µM (inactive)
- GI50 (HT-29): > 100 µM (inactive)
- GI50 (IGROV-1): > 100 µM (inactive)
- GI50 (K562): > 100 µM (inactive)
- GI50 (KM-20L2): > 100 µM (inactive)
- GI50 (KM12): > 100 µM (inactive)
- GI50 (LOX IMVI): > 100 µM (inactive)
- GI50 (M19-MEL): > 100 µM (inactive)
- GI50 (MCF7): > 100 µM (inactive)
- GI50 (MOLT-4): > 100 µM (inactive)
- GI50 (NCI-H226): > 100 µM (inactive)
- GI50 (NCI-H23): > 100 µM (inactive)
- GI50 (NCI-H460): > 100 µM (inactive)
- GI50 (NCI-H522): > 100 µM (inactive)
- GI50 (NCI/ADR-RES): > 100 µM (inactive)
- GI50 (OVCAR-3): > 100 µM (inactive)
- GI50 (OVCAR-4): > 100 µM (inactive)
- GI50 (OVCAR-5): > 100 µM (inactive)
- GI50 (OVCAR-8): > 100 µM (inactive)
- GI50 (RPMI-8226): > 100 µM (inactive)
- GI50 (RXF 393): > 100 µM (inactive)
- GI50 (SF-268): > 100 µM (inactive)
- GI50 (SF-295): > 100 µM (inactive)
- GI50 (SF-539): > 100 µM (inactive)
- GI50 (SK-MEL-28): > 100 µM (inactive)
- GI50 (SK-MEL-2): > 100 µM (inactive)
- GI50 (SK-MEL-5): > 100 µM (inactive)
- GI50 (SK-OV-3): > 100 µM (inactive)
- GI50 (SN12C): > 100 µM (inactive)
- GI50 (SNB-19): > 100 µM (inactive)
- GI50 (SNB-75): > 100 µM (inactive)
- GI50 (SNB-78): > 25.8 µM (inactive)
- GI50 (SW-620): > 100 µM (inactive)
- GI50 (U-251): > 100 µM (inactive)
- GI50 (UACC-257): > 100 µM (inactive)
- GI50 (UACC-62): > 100 µM (inactive)
- GI50 (UO-31): > 100 µM (inactive)
- GI50 (XF498): > 100 µM (inactive)
